Measured values as given in publication PMC7822816, “Halo-fluorescein for photodynamic bacteria inactivation in extremely acidic conditions” (Nature Communications, 2021).
“And” between values parts separate entries of the source, which are not always exact repeats. Equal values may be shown once.

Columns and labels:
[1] = pH titration of halogenated fluorescein (pH0.5); format: physicochemical; details: for lowering of pH0.5 compared with fluorescein: difference to fluorescein (6.09)
Method: The pH0.5 values (the pH value when the open form reduce to the half of the maximum) of various fluorescein derivatives were determined experimentally through pH titration (Supplementary Figs. 6–16).
The pH of the solutions were adjusted through varying the ratios of citric acid and Na2HPO4 (pH 2.2–8.0), and further acidity was adjusted with concentrated HCl or 1 M NaOH. The absorption and fluorescence spectra of the resultant solutions were then collected.
Section S5. pH-dependent Properties of the Halogenated Fluoresceins.
S5.1 pH titration of halogenated fluorescein
Fluorescein derivatives (Supplementary Table 1) were dissolved in DMSO to obtain 1 mM stock solutions and then diluted with citric acid-Na2HPO4 buffer (100 mM) to 10
μM. The pH of the solutions were adjusted through varying the ratios of citric acid and Na2HPO4 (pH 2.2-8.0), and further acidity was adjusted with concentrated HCl or 1 M
NaOH. The absorption and fluorescence spectra of the resultant solutions were then

[2] = Photophysical characterization (absorption, fluorescence, phosphorescence, lifetime); format: physicochemical; details: for ΦFL: 5 μM in 0.5% (v/v) DMSO, diluted with 0.1 M NaOH; for λAbs / λPh / λem: 2% DMSO; for τfl: fluorescence lifetime, 5 μM in 0.5% DMSO, 0.1 M NaOH
Method: Section S6. Photophysical Characterizations
S6.1 Absorption, fluorescence, and phosphorescence spectra
Fluorescein and its derivatives were dissolved in DMSO to obtain 1 mM stock solutions.
The stock solutions were diluted with deionized water to 10 μM.
Supplementary Figure 20. The absorption (black), fluorescence (blue), and phosphorescence (red, slit 25 nm) spectra of FL.
Supplementary Figure 21. The absorption (black), fluorescence (blue), and phosphorescence (red, slit 25 nm) spectra of DCF.
S6.2 Fluorescence lifetime
Fluorescence decay samples was recorded with Fluorolog-3 (Horiba). The solution of samples were prepared to be 5 μM in 0.5% (v/v) DMSO, and diluted with 0.1M NaOH.
S6.5 Photophysical properties of the halogenated-fluorescein derivatives
Supplementary Table 4. Photophysical Properties of Halogenated-fluorescein derivatives. […]
a Measured in 2% DMSO; b Measured in 2% DMSO citric acid -disodium hydrogen phosphate buffer; c Measured in a mixed solvent of D 2O and CH3CN (VD2O:
VCH3CN = 1: 15); d The solution of samples were prepared to be 5 μM in 0.5% (v/v) DMSO, and diluted with 0.1 M NaOH.

[3] = Relative singlet oxygen quantum yield (1O2 phosphorescence, Rose Bengal standard); format: physicochemical; design: key: relative to Rose Bengal standard (ΦΔ = 0.75); details: for singlet oxygen quantum yield (ΦΔ): pH = 10 media, relative, RB as the standard; for Singlet oxygen yield (ΦΔ): mixed solvent of D2O and CH3CN (1:15) (Supplementary Table 4)
Method: To permit the open-form structure of all fluorescein derivatives, all the measurements were carried out in pH = 10 media.
The singlet oxygen quantum yields (ΦΔ) of all fluorescein-based PSs were evaluated with Rose Bengal as the standard (ΦΔ = 0.75):1 ΦΔ=AsAbsorption/As(Emission)×ARB(Emission)/ARB(Absorption)×0.75 Here, the area of absorption (RB and PSs) was collected with an integrating sphere (λex = 510 nm), while the area of emission was obtained from the characterized 1270 nm ^1O2 phosphorescence emission. For collection of such emission, CH3CN and D2O mixed solvent (v (D2O): v (CH3CN) = 1:15, pH = 9.0, adjusted with 0.001 M NaOH) was used, since H2O can severely quench the singlet oxygen luminescence. For all the measurements, the concentrations of the PSs were set at 10 μM.
S6.3 Relative singlet oxygen quantum yield
The singlet O2 quantum yield of photosensitizers were measured by Fluolog-3 spectrofluorometer with an integration sphere (IS80, Labsphere) and NIR detector (Hamamatsu H-10330) in this work.
For better collection of the characterized singlet oxygen phosphorescence emission (1275 nm), CH3CN and D2O mixed solvent was used (H2O can severely quench the singlet oxygen luminescence). The 10 mM stock solutions in CH3CN and D2O mixed solvent (VCH3CN:VD2O = 15:1) were first prepared. The stock solutions were diluted to 10 μM, and the final volume was 2 mL. In addition, the CH3CN and D2O mixed solvent as blank was also prepared.
1. Turn on the instrument and the start software, the light source is xenon lamp.
2. From the experiment menu, selected spectra, emission. The 1O2 emission phosphorescence spectra are first measured.
3. The parameters setting are listed: a. Excitation wavelength: 510 nm

C. albicans = experiment: Fresh food preservation (infected tomato model); design: species or system Candida albicans; details: 10 μM in pH 3.0 PBS, LED 35 mW/cm^2 10 min (620 nm Zn-tpp, 660 nm Ce 6)
Excerpt: Besides fruit juices, the potential of TIF for photo-assisted fresh food preservation was also investigated with tomato as the model (pH 3.0). […] Therefore, the food additive TIF is also promising for fresh food preservation.
Tomatoes were selected as the model for photo-assisted fresh food preservation. All the tomatoes were divided into six groups, and made a wound of ~7 cm^2 by hot water. […] Afterward, the tomatoes were stored at room temperature and then subjected to repeated irradiation at day 2. The total viable counts of bacteria on the infected tomatoes were measured in day 3.

[4] = system: C. albicans infection of oral mucosa; details: photosensitizer + light (510 nm TIF, 660 nm Ce 6 and Zn-tpp)
Excerpt: The extremely acidic environment was constructed through changing the pH of the mucosa and diluting PSs in pH 3.0 PBS buffer. […] During the investigations, the infected ICR mice were divided into six groups (six mice per group): blank, light, TIF, TIF + light, Ce 6 + light, and Zn-tpp + light. For comparison and better visualization of the infection, a normal group (no infection) was also included.
To construct the oral mucosal infection model, cotton balls immersed in solutions containing 10^8 CFU/mL of C. albicans were placed in the mouth of mice for 75 min. At day 1 and day 3, 50 μL pH 3.0 PBS and PSs (20 μM, diluted by pH 3.0 PBS) were added to oral mucosa, and treated with different lasers (510 nm for TIF, 660 nm for Ce 6 and Zn-tpp, 50 mW/cm^2) for 10 min.
To investigate the therapy effect, photographs, colonies, weights, and pathology index of mice were taken every other day. After day 3, one mouse in each group was sacrificed, and the tissues of oral mucosa were harvested for hematoxylin and eosin (H&E) staining. The pathology index was evaluated based on the standard given in Supplementary Table 10.

L. plantarum = experiment: Photodynamic inhibition of L. plantarum (coating plate method); format: cell-based, Lactobacillus plantarum; details: 0.5 μM photosensitizer, irradiated 10 min, pH 2.5; 620 nm red LED for Zn-tpp and PC
[5] = design: method as in PMID 10546544; details: Rose Bengal as the standard; cited from earlier work
MRSA = details: dose 100 mg/L, 360 J/cm2; cited from earlier work
E.coli = details: dose 0.5 μM, 20 min; cited from earlier work
[6] = 2% DMSO citric acid-disodium hydrogen phosphate buffer (Supplementary Table 4)
[7] = pH value when the open form reduces to half of the maximum, pH titration, 10 μM, citric acid–Na2HPO4 buffer

Row | Compound | pH0.5 [1, 6] | pH0.5 [1, 7] | kdec [2] | knr [2] | krad [2] | ΦFL [2] | λAbs [2] | λPh [2] | λem [2] | τfl [2] | singlet oxygen quantum yield (ΦΔ) [3] | Singlet oxygen yield (ΦΔ) [3] | wound infection of tomatoes, with light (C. albicans) | H&E staining of tongue sections, with light [4] | antimicrobial activity (survival rate of L. plantarum) (L. plantarum) | singlet oxygen quantum yield (ΦΔ) of the standard [5] | lowering of pH0.5 compared with fluorescein [1] | Inhibition ratio (MRSA) | Inhibition ratio (E.coli)
1 | O=C(O)c1ccccc1-c1c2ccc(=O)c(I)c-2oc2c(I)c(O)ccc12 [DIF, Diiodo-fluorescein] | 4.13 | 4.13 | 1e+11 s⁻¹ | 9.99e+10 s⁻¹ | 1e+08 s⁻¹ | 0.001 | 527 nm | 699 nm | 549 nm | 0.01 ns | 0.63 | – | – | – | – | – | – | – | –
2 | O=C(O)c1ccccc1-c1c2ccc(=O)c(Br)c-2oc2c(Br)c(O)ccc12 [DBF, Dibromo-fluorescein] | 4.63 | 4.63 and 4.52 | 5.03e+08 s⁻¹ | 3.5e+08 s⁻¹ | 1.52e+08 s⁻¹ | 0.303 | 504 nm | 685 nm | 531 nm | 1.99 ns | 0.19 | 0.26 | – | – | – | – | – | – | –
3 | C=Cc1c(C)c2cc3nc(c(CC(=O)O)c4[nH]c(cc5nc(cc1[nH]2)C(C)=C5CC)c(C)c4C(=O)O)[C@@H](CCC(=O)O)[C@@H]3C [Ce 6, reference compound] | – | – | – | – | – | – | – | – | – | – | – | – | different magnitudes of wound infection | large amounts of inflammation infiltration | – | – | – | – | –
4 | C1=Cc2nc1c(-c1ccccc1)c1ccc([n-]1)c(-c1ccccc1)c1nc(c(-c3ccccc3)c3ccc([n-]3)c2-c2ccccc2)C=C1.[Zn+2] [Zn-tpp, Zinc(II) tetraphenylporphyrin, reference compound] | – | – | – | – | – | – | – | – | – | – | – | – | different magnitudes of wound infection | large amounts of inflammation infiltration | no obvious antimicrobial activity | – | – | – | –
5 | O=C(O)c1c(Cl)c(Cl)c(Cl)c(Cl)c1-c1c2cc(I)c(=O)c(I)c-2oc2c(I)c(O)c(I)cc12 [RB, Tetraiodo-tetrachloro-fluorescein] | 3.99 | 3.99 | 1e+11 s⁻¹ | 9.97e+10 s⁻¹ | 3e+08 s⁻¹ | 0.003 | 550 nm | 732 nm | 570 nm | 0.01 ns | 0.75 | 0.75 | – | – | – | 0.75 | – | – | –
6 | O=C(O)c1ccccc1-c1c2cc(Cl)c(=O)c(Cl)c-2oc2c(Cl)c(O)c(Cl)cc12 [TCF-1, Tetrachloro-fluorescein-1] | 2.79 | 2.79 | 2.44e+08 s⁻¹ | 7.8e+07 s⁻¹ | 1.66e+08 s⁻¹ | 0.680 | 515 nm | 655 nm | 536 nm | 4.09 ns | 0.06 | 0.06 | – | – | – | – | 3.30 units | – | –
7 | O=C(O)c1c(Cl)c(Cl)c(Cl)c(Cl)c1-c1c2cc(Cl)c(=O)c(Cl)c-2oc2c(Cl)c(O)c(Cl)cc12 [OCF, Octachloro-fluorescein] | 3.41 | 3.41 | 2.31e+08 s⁻¹ | 9.3e+07 s⁻¹ | 1.38e+08 s⁻¹ | 0.597 | 537 nm | 676 nm | 556 nm | 4.33 ns | 0.11 | 0.11 | – | – | – | – | – | – | –
8 | CN(C)c1ccc2nc3ccc(=[N+](C)C)cc-3sc2c1 [Methylene Blue] | – | – | – | – | – | – | – | – | – | – | – | – | – | – | – | – | – | 4.7 log10 | –
9 | O=C(O)c1c(Cl)c(Cl)c(Cl)c(Cl)c1-c1c2cc(Br)c(=O)c(Br)c-2oc2c(Br)c(O)c(Br)cc12 [PB, Tetrabromo-tetrachloro-fluorescein] | 3.45 | 3.45 | 8e+08 s⁻¹ | 6.64e+08 s⁻¹ | 1.36e+08 s⁻¹ | 0.170 | 539 nm | 730 nm | 560 nm | 1.25 ns | 0.26 | – | – | – | – | – | – | – | –
10 | Fluorescein | 6.09 | 6.09 | 2.18e+08 s⁻¹ | 3.1e+07 s⁻¹ | 1.87e+08 s⁻¹ | 0.858 | 491 nm | 638 nm | 515 nm | 4.58 ns | 0.01 | – | – | – | – | – | – | – | –
11 | [Ru(bpy)2(dppn)]2+ | – | – | – | – | – | – | – | – | – | – | – | – | – | – | – | – | – | – | 5.4 log10
12 | O=C(O)c1c(Cl)c(Cl)c(Cl)c(Cl)c1-c1c2ccc(=O)cc-2oc2cc(O)ccc12 [TCF-2, Tetrachloro-fluorescein-2] | 5.89 | 5.89 and 5.93 | 2.05e+08 s⁻¹ | 3e+07 s⁻¹ | 1.75e+08 s⁻¹ | 0.854 | 511 nm | 637 nm | 531 nm | 4.87 ns | 0.05 | – | – | – | – | – | 0.16 units | – | –
13 | Dichloro-fluorescein [DCF] | 4.77 | 4.77 | 2.31e+08 s⁻¹ | 7.7e+07 s⁻¹ | 1.54e+08 s⁻¹ | 0.668 | 502 nm | 645 nm | 529 nm | 4.33 ns | 0.04 | – | – | – | – | – | – | – | –
